Measurements: patent US11306115B2, “Aminoglycoside derivatives and uses thereof in treating genetic disorders” (priority 2015, dated 2022)
“Also recorded” adds a separate entry of the source.

Experiments:
[1] = test system: Rett syndrome R168X, R270X and R294X nonsense mutations; assay: Readthrough activity in cell-free assay, Rett syndrome nonsense mutations suppression; type: biochemical, rabbit; conditions: 5 μM, FIGS. 8A-C; for firefly/renilla expression ratio compared with the control, wild type cell extracts: WT
Description: (§1) The plasmids were transcribed in vitro and translated using rabbit reticulocytes (TNT mix) and then tested for the expression levels of the firefly and renilla luciferases. WT plasmids expressed both firefly and renilla luciferases while mutant plasmids expressed only the renilla luciferase due to the stop codon found in the inserted sequence. The readthrough assays were conducted for the tested compounds and the controls by adding the compounds to the in vitro transcription/translation reaction mixture. In case the compounds exerted suppression of the premature nonsense/stop codon mutation, the firefly luciferase was expressed and a fold-change in its expression was observed.
FIGS. 8A-C present the results of Rett syndrome R168X (FIG. 8A), R270X (FIG. 8B) and R294X (FIG. 8C) nonsense mutations suppression cell-free assays conducted for six exemplary compounds according to embodiments of the present invention, NB144, NB145, NB146, NB150, NB151 and NB152, at a concentration of 5 μM. As shown therein, when compared with the control (non-treated cell extracts), the wild type cell extracts are unaffected (approx. 100%); however, in all three Rett syndrome mutation models there is a significant impact of the different treatments on the readthrough activity (>>>100%).

[2] = test system: cystic fibrosis G542X nonsense mutation; assay: Readthrough activity in cell-free assay, cystic fibrosis G542X nonsense mutation suppression dose-response; type: biochemical, rabbit; conditions: concentration range 0-50 μM; for mutation suppression activity (firefly expression and firefly/renilla expression ratio, G542X mutant sequence): FIGS. 4-7; for protein synthesis inhibitory effect (expression levels up or downstream of the WT sequence): FIGS. 4A, 4C, 4E, 6
Description: as §1
Readthrough activity of Cystic Fibrosis (CF) mutation G542X was tested using the compounds presented in Table 1, and the mutation suppression was calculated based on firefly/renilla expression ratio values, and normalized with respect to the expression level of the WT and the control sample (no tested compound).

[3] = test system: Rett syndrome causing premature stop codon mutations R168X, R270X and R294X; type: cell-based, human; conditions: offered as explanation of limited readthrough level, 0.3 and 1 mM

Compound	firefly/renilla expression ratio compared with the control, wild type cell extracts [1]	mutation suppression activity (firefly expression and firefly/renilla expression ratio, G542X mutant sequence) [2]	readthrough activity, comparison in words [1]	protein synthesis inhibitory effect (expression levels up or downstream of the WT sequence) [2]	cytotoxicity [3]
CC(C)CNC1CC(N)[C@@H](O[C@H]2OC([C@@H](C)O)[C@@H](O)C(O)C2N)C(O)[C@@H]1O (stereo in doubt) [NB144]	approx. 100%	notable dose-dependent readthrough activity			
C[C@@H](O)C1O[C@H](O[C@@H]2C(N)CC(NCc3ccccc3)[C@@H](O)C2O)C(N)C(O)[C@@H]1O (stereo in doubt) [NB145]	approx. 100%	notable dose-dependent readthrough activity			
CCCNC1CC(N)[C@@H](O[C@H]2OC([C@@H](C)O)[C@@H](O)C(O)C2N)C(O)[C@@H]1O (stereo in doubt) [NB146]	approx. 100%	clearly dose-dependent; also recorded: notable dose-dependent readthrough activity	better activity compared to NB144 and NB145	more protein synthesis inhibitory effect	
C[C@@H](O)C1O[C@H](O[C@@H]2C(N)CC(NC(=N)N)[C@@H](O)C2O)C(N)[C@H](O)[C@@H]1O (stereo in doubt) [NB150]	approx. 100%	notable dose-dependent readthrough activity			
C[C@@H](O)C1O[C@H](O[C@@H]2C(N)C[C@@H](N)C(O)C2O[C@@H]2O[C@H](CNC(=N)N)C(O)C2O)C(N)C(O)[C@@H]1O (stereo in doubt) [NB151]	approx. 100%	notable dose-dependent readthrough activity			
C[C@@H](O)C1O[C@H](O[C@@H]2C(N)C[C@@H](NC(=O)C(O)CCN)C(O)C2O[C@@H]2O[C@H](CNC(=N)N)C(O)C2O)C(N)C(O)[C@@H]1O (stereo in doubt) [NB152]	approx. 100%	notable dose-dependent readthrough activity	higher activity compared to NB150 and NB151	protein synthesis inhibition	
CN[C@@H]1[C@@H](O)[C@@H](O[C@@H]2[C@@H](O)[C@H](O[C@H]3O[C@H]([C@@H](C)O)[C@@H](O)[C@H](O)[C@H]3N)[C@@H](N)C[C@H]2N)OC[C@]1(C)O [Compound G418]					significant cytotoxicity
